From ChEMBL document CHEMBL1144158, “Synthesis and biological properties of 2-methylene-19-nor-25-dehydro-1alpha-hydroxyvitamin D(3)-26,23-lactones--weak agonists” (Bioorg Med Chem, 2008)
The source made the active and inactive calls. No cut-off for these calls is given here.

Key:
[1] = biological target: T1, Vitamin D3 receptor (Rattus norvegicus) (UniProt P13053); assay: Antagonist activity at rat recombinant VDR expressed in rat ROS 17/2.8 cells transfected with 24-hydroxylase gene promoter assessed as 1-alpha,25-(OH)2D3-induced transcriptional activation at 0.001 uM to 0.1 uM after 16 hrs by luciferase reporter gene assay; assay type: functional, cell-based
T1 sequence (whole entry): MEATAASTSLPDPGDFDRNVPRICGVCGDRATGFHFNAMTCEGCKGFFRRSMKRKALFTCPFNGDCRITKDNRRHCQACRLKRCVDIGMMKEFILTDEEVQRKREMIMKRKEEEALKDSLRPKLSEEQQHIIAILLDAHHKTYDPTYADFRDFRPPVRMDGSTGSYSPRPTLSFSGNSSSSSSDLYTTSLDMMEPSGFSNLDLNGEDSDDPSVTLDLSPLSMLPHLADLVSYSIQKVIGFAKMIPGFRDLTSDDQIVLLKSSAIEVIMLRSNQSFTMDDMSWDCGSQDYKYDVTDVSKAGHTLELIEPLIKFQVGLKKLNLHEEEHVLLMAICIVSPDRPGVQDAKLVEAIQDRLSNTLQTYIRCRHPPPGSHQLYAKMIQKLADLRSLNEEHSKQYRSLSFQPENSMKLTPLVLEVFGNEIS

Vitamin D3 receptor [2] = biological target: T2, Vitamin D3 receptor (Rattus norvegicus, UniProt P13053); assay: Displacement of [3H]1-alpha,25-(OH)2D3 from rat recombinant full length VDR
T2 sequence (P13053 whole entry): T1 sequence (whole entry)

Rattus norvegicus [3] = assay: Effect on bone calcium mobilization in vitamin D-deficient Sprague-Dawley rat assessed as serum calcium level at 320 pmol, ip administered 4 consecutive daily doses assessed after 24 hrs of last dose by spectrometry; assay type: functional
Rattus norvegicus [4] = assay: Effect on bone calcium mobilization in vitamin D-deficient Sprague-Dawley rat assessed as serum calcium level at 7800 pmol, ip administered 4 consecutive daily doses assessed after 24 hrs of last dose by spectrometry; assay type: functional
Rattus norvegicus [5] = assay: Effect on calcium transport in vitamin D-deficient Sprague-Dawley rat intestine assessed as ratio of serosal to mucosal calcium level at 260 pmol, ip administered 4 consecutive daily doses assessed after 24 hrs of last dose by gut sac assay; assay type: functional
Rattus norvegicus [6] = assay: Effect on calcium transport in vitamin D-deficient Sprague-Dawley rat intestine assessed as ratio of serosal to mucosal calcium level at 7800 pmol, ip administered 4 consecutive daily doses assessed after 24 hrs of last dose by gut sac assay; assay type: functional
HL-60 = assay: Induction of differentiation of human HL-60 cells promyelocytes to monocytes after 4 days by NBT reduction assay; assay type: functional, cell-based; settings: HL-60, 96 h
Rattus norvegicus [7] = assay: Effect on calcium transport in vitamin D-deficient Sprague-Dawley rat intestine assessed as ratio of serosal to mucosal calcium level at 320 pmol, ip administered 4 consecutive daily doses assessed after 24 hrs of last dose by gut sac assay; assay type: functional
Rattus norvegicus [8] = assay: Effect on bone calcium mobilization in vitamin D-deficient Sprague-Dawley rat assessed as serum calcium level at 960 pmol, ip administered 4 consecutive daily doses assessed after 24 hrs of last dose by spectrometry; assay type: functional
Rattus norvegicus [9] = assay: Effect on calcium transport in vitamin D-deficient Sprague-Dawley rat intestine assessed as ratio of serosal to mucosal calcium level at 2340 pmol, ip administered 4 consecutive daily doses assessed after 24 hrs of last dose by gut sac assay; assay type: functional
Rattus norvegicus [10] = assay: Effect on calcium transport in vitamin D-deficient Sprague-Dawley rat intestine assessed as ratio of serosal to mucosal calcium level at 960 pmol, ip administered 4 consecutive daily doses assessed after 24 hrs of last dose by gut sac assay; assay type: functional
Vitamin D3 receptor [11] = biological target: T2, Vitamin D3 receptor; assay: Activity at rat recombinant full length VDR expressed in rat ROS 17/2.8 cells transfected with 24-hydroxylase gene promoter assessed as transcriptional activation after 16 hrs by luciferase reporter gene assay
Rattus norvegicus [12] = assay: Effect on bone calcium mobilization in vitamin D-deficient Sprague-Dawley rat assessed as serum calcium level at 2340 pmol, ip administered 4 consecutive daily doses assessed after 24 hrs of last dose by spectrometry; assay type: functional
Rattus norvegicus [13] = assay: Effect on bone calcium mobilization in vitamin D-deficient Sprague-Dawley rat assessed as serum calcium level at 260 pmol, ip administered 4 consecutive daily doses assessed after 24 hrs of last dose by spectrometry; assay type: functional

| Activity [1] | Ki (Vitamin D3 receptor [2]) [nM] | EC50 (HL-60) [nM] | EC50 (Vitamin D3 receptor [11]) [nM] | SMILES | Ratio (Rattus norvegicus [3]) | Ratio (Rattus norvegicus [4]) | Ratio (Rattus norvegicus [5]) | Ratio (Rattus norvegicus [6]) | Ratio (Rattus norvegicus [7]) | Ratio (Rattus norvegicus [8]) | Ratio (Rattus norvegicus [9]) | Ratio (Rattus norvegicus [10]) | Ratio (Rattus norvegicus [12]) | Ratio (Rattus norvegicus [13]) |
| --- | --- | --- | --- | --- | --- | --- | --- | --- | --- | --- | --- | --- | --- | --- |
| Active | – | – | – | C=C1[C@H](O)CC(=C/C=C2\CCC[C@]3(C)[C@@H]([C@H](C)/C=C/[C@@H](O)C4(C(=O)OCCCC)CC4)CC[C@@H]23)C[C@H]1O | – | – | – | – | – | – | – | – | – | – |
| – | 2 | 2 | 100 | C=C1C[C@@H](C[C@@H](C)[C@H]2CC[C@H]3/C(=C/C=C4C[C@@H](O)C(=C)[C@H](O)C4)CCC[C@]23C)OC1=O | 3.7 | 4 | 5.6 | 11 | 5.1 | 3.8 | 9.6 | 5.9 | – | – |
| – | 1 | 4 | 2 | C=C1C[C@H](C[C@@H](C)[C@H]2CC[C@H]3/C(=C/C=C4C[C@@H](O)C(=C)[C@H](O)C4)CCC[C@]23C)OC1=O | – | – | 7.6 | – | – | – | 9.5 | – | 4.2 | 4.4 |
